In the assay the target is Tyrosinase (Agaricus bisporus). The assay can be described thus: Tyrosinase inhibition assays were performed in a 96-well microplate format using SpectraMax 340 (Molecular Devices, CA, USA) microplate reader according to method developed earlier. As to conditions: pH 6.8.

The molecule `CC(=O)N1CCC(N2CCCCC2)CC1` yielded an IC50 of 29.9 µM. On to `O=[N+]([O-])c1ccc(S(=O)(=O)N2CCC(N3CCCCC3)CC2)cc1` [Tyrosinase Inhibitor, 8], for which the 50% inhibitory concentration (IC50) was 8.76 µM. Under `Cc1ccc(CN2CCC(N3CCCCC3)CC2)cc1` [Tyrosinase Inhibitor, 4] stands 1.72 µM; under `C1CCN(C2CCNCC2)CC1` [Tyrosinase Inhibitor, 1], 111 µM.

The values above are taken from BindingDB's records for doi:10.1080/14756360500179333 (University of Karachi, 2005).
